Assay results as given in patent publication US9265764B2, “Uses of chemicals to modulate GSK-3 signaling for treatment of bipolar disorder and other brain disorders” (Massachusetts Institute of Technology, priority 2009, dated 2016).

Tests used:
[1] = system: βCat-eGFP reporter in human U2OS cells; assay: Cellular β-catenin stability assay (βCat-eGFP reporter); type: cell-based; details: for β-catenin accumulation: βCat-eGFP reporter assay
Procedure: Cellular-β-Catenin Stability Assay: To study effects of small molecules on GSK-3/β-catenin signaling in cells, we optimized an image-based assay that measures β-catenin stability. This assay uses human U2OS cells engineered to express a genetically encoded fluorescent reporter consisting of a fusion of β-catenin to enhanced green fluorescent protein (eGFP) that were obtained from Thermo Fisher Scientific (Denmark). […] Lithium treatments at 10 mM and valproic acid at 10 mM also have the same effect in this assay. […] Cells were imaged on an ImageXpress Micro (Molecular Devices) automated microscope at 10× magnification with detection of both DNA and eGFP fluorescence. The percentage of eGFP positive cells was calculated and compared to an untreated control.

panel of 358 kinases = assay: KINOMEscan active-site dependent competition binding assay; details: 10 μM
[2] = system: amphetamine-induced hyperactivity in C57BL/6J mice; assay: Amphetamine-induced hyperactivity (AIH) in C57BL/6J mice; type: in vivo
[3] = system: dopamine transporter (DAT) knockout mice; details: 10 mg/kg; i.p.; cited from earlier work
human GSK-3β = biological target: T1, human GSK-3β (Homo sapiens, UniProt P49841); assay: in vitro GSK-3β kinase assay (Kinase-Glo luminescence); type: biochemical; details: FIG. 9 dose response, n=4
T1 construct: Recombinant full-length human GSK-3β (NM_002093) with an N-terminal GST tag; GST (N); purchased BPS Biosciences 40007; host or cells: Sf9 insect cells (baculovirus)
T1 sequence (P49841 1-433 isoform P49841-2): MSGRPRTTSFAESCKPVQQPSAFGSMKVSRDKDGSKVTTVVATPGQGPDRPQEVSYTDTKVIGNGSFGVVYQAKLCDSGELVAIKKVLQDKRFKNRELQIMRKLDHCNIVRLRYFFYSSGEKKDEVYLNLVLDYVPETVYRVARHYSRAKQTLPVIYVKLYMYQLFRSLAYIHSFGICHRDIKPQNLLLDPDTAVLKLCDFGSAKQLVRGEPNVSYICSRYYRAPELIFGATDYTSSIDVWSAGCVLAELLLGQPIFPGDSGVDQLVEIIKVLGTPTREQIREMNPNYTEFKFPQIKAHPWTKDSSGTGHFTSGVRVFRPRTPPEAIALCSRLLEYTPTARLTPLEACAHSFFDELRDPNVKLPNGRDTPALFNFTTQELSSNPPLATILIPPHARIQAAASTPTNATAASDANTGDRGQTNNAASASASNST

[4] = system: TCF/LEF reporter in HEK293 cells; assay: TCF/LEF reporter assay with lithium; type: cell-based; details: FIG. 12
[5] = Serum level after systemic administration
[6] = system: amphetamine-induced hyperactivity in DBA/2J mice; assay: Lithium-nonresponsive AIH in DBA/2J mice; type: in vivo; details: for effect on AIH: DBA/2J
[7] = ICV 1 μl of 0.1, 1.4, 14 μg/μl, FIGS. 16-18
[8] = intra-striatal infusion, 1 μl of 1.4 μg/μl, FIG. 22

CN(C)C[C@@H]1CCn2cc(c3ccccc32)C2=C(C(=O)NC2=O)c2cn(c3ccccc23)CCO1 [ruboxistaurin]
β-catenin accumulation [1]: able to cause β-catenin accumulation | Number of Binding Targets (kinases) (panel of 358 kinases): 95 | effect on AIH [2, 7]: moderate attenuating effect

Cn1cc(C2=C(c3cn(C4CCN(Cc5ccccn5)CC4)c4ccccc34)C(=O)NC2=O)c2ccccc21 [enzastaurin]
β-catenin accumulation [1]: able to cause β-catenin accumulation | Number of Binding Targets (kinases) (panel of 358 kinases): 75 | effect on AIH [2, 7]: no effect in AIH | effect on AIH [2, 8]: modestly effective

Cn1cc(C2=C(c3ccc(Cl)cc3Cl)C(=O)NC2=O)c2ccccc21 [SB-216763]
Number of Binding Targets (kinases) (panel of 358 kinases): 31 | effect on AIH ([2]; 5, 10, 20 mg/kg i.p.): None of these GSK-3 inhibitors showed a significant effect on hyperactivity | effect on AIH ([2]; ICV in DMSO vehicle): None of these GSK-3 inhibitors showed a significant effect on hyperactivity | hyperactivity in DAT knockout mice [3]: attenuates hyperactivity

COc1ccc(CNC(=O)Nc2ncc([N+](=O)[O-])s2)cc1 [AR-A014418]
eGFP fluorescence and accumulation of βCat-eGFP reporter ([1]; 20 μM over 20 hrs): dose dependent increase in eGFP fluorescence | effect on AIH ([2]; 9 mg/kg i.p., FIG. 19): None of these GSK-3 inhibitors showed a significant effect on hyperactivity

CN(C)CCCn1cc(C2=C(c3c[nH]c4ccccc34)C(=O)NC2=O)c2ccccc21 [BIM-I, bisindoylmaleimide I]
IC50 (human GSK-3β): ~6.9 nM

Cc1c[nH]c(-c2cnc(NCCNc3ccc(C#N)cn3)nc2-c2ccc(Cl)cc2Cl)n1 [CHIR-99021]
Number of Binding Targets (kinases) (panel of 358 kinases): 10 | effect on AIH ([2]; 6.25 mg/kg single dose i.p., FIG. 24): non-effective dose | effect on AIH ([2]; 12.5 mg/kg single dose i.p., FIG. 24): significantly decreased amphetamine-induced hyperactivity | effect on AIH ([2]; 25 mg/kg single dose i.p., FIG. 24): significantly decreased amphetamine-induced hyperactivity | effect on AIH [2, 7]: effective in attenuating AIH to levels comparable to those observed after lithium administration | effect on AIH [2, 8]: almost complete ablation of the amphetamine-induced hyperactivity | lowest dose that attenuated AIH ([2]; systemic (i.p.), C57BL/6J mice): 12.5 mg/kg | TCF/LEF reporter signal: effect of addition of lithium ([4]; high concentration of Chir99021): synergistic effect | TCF/LEF reporter signal: effect of addition of lithium ([4]; lower concentrations of Chir99021): only an additive effect | maximum serum level ([5]; 3.125 mg/kg systemic, extrapolated): 3 to 4 µM | maximum serum level ([5]; 3.125 mg/kg systemic, extrapolated, listed as compound of formula 7): about 4 μM | maximum serum level ([5]; 12.5 mg/kg systemic): about 15 μM | maximum serum level ([5]; 50 mg/kg systemic): about 69 μM | effect on AIH ([6]; 50 mg/kg i.p., FIG. 26): significant attenuation of AIH | effect on AIH ([6]; ICV 0.14 μg (1 μl infusion), FIG. 28): significantly attenuated AIH | effect on AIH ([6]; ICV 1.4 μg (1 μl infusion), FIG. 28): significantly attenuated AIH | lowest dose that attenuated AIH ([6]; systemic (i.p.), DBA/2J mice, FIG. 27): 0.78 mg/kg

CCCC(CCC)C(=O)O [valproic acid]
eGFP fluorescence and accumulation of βCat-eGFP reporter ([1]; 10 mM): same effect
